EP4329743B1 (priority 2021, dated 2022)

Tests used:
[1] = tested on: MDCK II cells
[2] = tested on: inflammatory cytokines such as TNF-alpha, IL-1β, IL-6 and IL-8; assay: Release of inflammatory cytokines from LPS-stimulated human whole blood (cytometric bead array); type: cell-based; details: whole blood diluted 1:5, LPS 10ng/ml, 1 to 20 mM, 6 h; Figure 6
Procedure: Human heparinized whole blood was diluted with RPMI 1640 medium (ThermoFisher Scientific) (1:5) and incubated with LPS (10ng/ml) and increasing concentration of ethyl pyruvate (A-D) or ethyl lactate (E-H) (1 to 20 mM) for 6 h at 37°C with 5% CO2. Following incubation, the plates were centrifuged at 2000g for 10 min and the proinflammatory cytokines were analysed by cytometric bead array using a FACSCalibur and the CellQuestTMSoftware (BD Biosciences).

[3] = tested on: influenza virus H9N2; type: cell-based; details: MDCK II cells, H9N2, 1 h infection, 2 days culture; ethyl pyruvate 42 mM; Figure 5
[4] = tested on: Neuraminidase (EC 3.2.1.18); assay: Neuraminidase activity assay (colorimetric kit, Sigma Aldrich MAK121); type: biochemical; details: maximum activity set 100%; mean of three independent experiments; Figure 4
Procedure: Neuraminidase (EC 3.2.1.18) also known as sialidase is an enzyme that hydrolyzes terminal sialic acid residues on polysaccharide chains. It is predominantly expressed on the surface of viruses and bacteria. For activity measurement, the activity was measured using the neuraminidase activity kit from Sigma Aldrich (Cat.No.: MAK121). Accordingly, the neuraminidase activity is determined by an enzymatic essay in which the sialic acid released by neuraminidase results in the colorimetric product directly proportional to neuraminidase activity in the sample. The reaction master mixture contained assay buffer, (+/-) substrate, cofactors, neuraminidase, and dye-reagent. The activity is expressed as units/L and maximum activity was arbitrarily set 100%. The effect of ethyl pyruvate and ethyl lactate on enzyme activity was evaluated by comparing the change of the absorbance against the samples with substrate (maximum activity) and without the substrate (blank).

| SMILES | toxic effect on MDCK II cells [1] | release of inflammatory cytokines (TNF-alpha, IL-1β, IL-6, IL-8) [2] | cytopathic effect of the influenza virus (cellular structures and confluency) [3] | activity of neuraminidase [4] |
| --- | --- | --- | --- | --- |
| CCOC(=O)C(C)O (centres unmarked) [ethyl lactate] | no toxic effect | effectively inhibited | does not protect MDCK II cells from the cytopathic effect of the virus | only minimum inhibitory effect |
| CCOC(=O)C(C)=O [ethyl pyruvate, Ethyl pyruvate] | no toxic effect | effectively inhibited | the cellular structures and confluency is preserved | inhibits activity of neuraminidase in a concentration-dependent manner |
